Experiments:
Experiment in all cases: relative viability (nuclei count vs DMSO), 5 days (fraction); higher = more cells survive
Ispinesib + Tozasertib = compound: Cc1ccc(C(=O)N(CCCN)[C@@H](c2nc3cc(Cl)ccc3c(=O)n2Cc2ccccc2)C(C)C)cc1 [Ispinesib] + Cc1cc(Nc2cc(N3CCN(C)CC3)nc(Sc3ccc(NC(=O)C4CC4)cc3)n2)n[nH]1 [Tozasertib] (partner 0.1 µM)
Summary of the method: (§1)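 Lung cancer cell lines, seeded in 1536-well plates, were treated the following day by pin tool with a single drug or with five library-drug doses (not always all listed) in √10 steps on top of a fixed anchor-drug dose. Cells were fixed and nuclei stained in one step after 5 days, and nuclei were counted. Relative viability is the nuclei count for treated wells divided by that for vehicle wells, reported as medians of duplicate plates.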

Linsitinib + Navitoclax = compound: C[C@]1(O)C[C@@H](c2nc(-c3ccc4ccc(-c5ccccc5)nc4c3)c3c(N)nccn32)C1 [Linsitinib] + CC1(C)CCC(c2ccc(Cl)cc2)=C(CN2CCN(c3ccc(C(=O)NS(=O)(=O)c4ccc(N[C@H](CCN5CCOCC5)CSc5ccccc5)c(S(=O)(=O)C(F)(F)F)c4)cc3)CC2)C1 [Navitoclax] (partner 0.5 µM)
Summary of the method: as §1

Linsitinib + Bortezomib = compound: C[C@]1(O)C[C@@H](c2nc(-c3ccc4ccc(-c5ccccc5)nc4c3)c3c(N)nccn32)C1 [Linsitinib] + CC(C)C[C@H](NC(=O)[C@H](Cc1ccccc1)NC(=O)c1cnccn1)B(O)O [Bortezomib] (partner 0.002 µM)
Summary of the method: as §1

Linsitinib + Decitabine = compound: C[C@]1(O)C[C@@H](c2nc(-c3ccc4ccc(-c5ccccc5)nc4c3)c3c(N)nccn32)C1 [Linsitinib] + Nc1ncn([C@H]2C[C@H](O)[C@@H](CO)O2)c(=O)n1 [Decitabine] (partner 2 µM)
Summary of the method: as §1

| Cell Line | relative viability (Ispinesib + Tozasertib; first compound 0.001 µM) | relative viability (Ispinesib + Tozasertib; first compound 0.003162 µM) | relative viability (Ispinesib + Tozasertib; first compound 0.01 µM) | relative viability (Ispinesib + Tozasertib; first compound 0.03162 µM) | relative viability (Ispinesib + Tozasertib; first compound 0.1 µM) | relative viability (Linsitinib + Navitoclax; first compound 0.01 µM) | relative viability (Linsitinib + Navitoclax; first compound 0.03162 µM) | relative viability (Linsitinib + Navitoclax; first compound 0.1 µM) | relative viability (Linsitinib + Navitoclax; first compound 0.3162 µM) | relative viability (Linsitinib + Navitoclax; first compound 1 µM) | relative viability (Linsitinib + Bortezomib; first compound 0.01 µM) | relative viability (Linsitinib + Bortezomib; first compound 0.03162 µM) | relative viability (Linsitinib + Bortezomib; first compound 0.1 µM) | relative viability (Linsitinib + Bortezomib; first compound 0.3162 µM) | relative viability (Linsitinib + Bortezomib; first compound 1 µM) | relative viability (Linsitinib + Decitabine; first compound 0.01 µM) | relative viability (Linsitinib + Decitabine; first compound 0.03162 µM) | relative viability (Linsitinib + Decitabine; first compound 0.1 µM) | relative viability (Linsitinib + Decitabine; first compound 0.3162 µM) | relative viability (Linsitinib + Decitabine; first compound 1 µM) |
| --- | --- | --- | --- | --- | --- | --- | --- | --- | --- | --- | --- | --- | --- | --- | --- | --- | --- | --- | --- | --- |
| 201T | 0.919 | 0.979 | 0.998 | 0.999 | 0.587 | 1.22 | 1.26 | 1.23 | 1.29 | 1.24 | 1.1 | 1.12 | 1.08 | 1.08 | 1.03 | 0.868 | 0.881 | 0.904 | 0.832 | 0.889 |
| A549 | – | – | – | – | – | 1.21 | 1.15 | 1.1 | 1.01 | 0.895 | – | – | – | – | – | 0.246 | 0.234 | 0.309 | 0.12 | 0.241 |
| A-427 | 0.203 | 0.216 | 0.189 | 0.185 | 0.23 | 0.97 | 0.964 | 0.999 | – | 0.967 | 0.974 | 1.02 | 0.987 | – | 0.869 | 0.597 | 0.595 | 0.577 | – | 0.523 |
| ABC-1 | 0.197 | 0.174 | 0.21 | 0.182 | 0.184 | – | – | – | – | – | 0.325 | 0.291 | 0.276 | 0.284 | 0.252 | 1.02 | 1.17 | 1.22 | 0.995 | 0.842 |
| BEN | 0.508 | 0.464 | 0.548 | 0.633 | 0.574 | 0.0565 | 0.0788 | 0.0565 | 0.0421 | 0.0587 | 0.884 | 0.78 | 0.658 | 0.612 | 0.626 | 0.526 | 0.945 | 0.65 | 0.442 | 0.747 |
| CAL-12T | 0.244 | 0.361 | 0.296 | 0.213 | 0.222 | 1.2 | 1.2 | 1.28 | 1.05 | 0.991 | 0.873 | 0.882 | 0.996 | 0.833 | 0.817 | – | – | – | – | – |
| COR-L23 | 0.26 | 0.231 | 0.204 | 0.178 | 0.152 | 0.915 | 1.01 | 1.11 | 0.931 | 0.897 | 0.861 | 1.03 | 1.08 | 0.896 | 1.06 | 0.399 | 0.539 | 0.418 | 0.351 | 0.441 |
| COR-L 105 | 0.378 | 0.358 | 0.365 | 0.343 | 0.329 | 0.826 | 0.759 | 0.856 | 0.604 | 0.709 | 0.821 | 0.619 | 0.785 | 0.389 | 0.501 | 0.636 | 0.569 | 0.597 | 0.554 | 0.659 |
| Calu-6 | – | – | – | – | – | 0.826 | 0.688 | 0.843 | 0.629 | 0.572 | 0.996 | 1.04 | 1.05 | 0.867 | 0.905 | – | – | – | – | – |
| ChaGo-K-1 | 0.22 | 0.225 | 0.234 | 0.248 | 0.222 | 1.09 | 0.793 | 0.829 | 0.377 | 0.939 | 1.05 | 0.98 | 0.922 | 0.443 | 1 | 0.504 | 0.519 | 0.49 | – | 0.51 |
| EBC-1 | – | – | – | – | – | 0.424 | 0.411 | 0.393 | 0.352 | 0.251 | 0.59 | 0.536 | 0.579 | 0.519 | 0.442 | – | – | – | – | – |
| EKVX | 0.417 | 0.386 | 0.424 | 0.373 | 0.223 | 0.967 | 0.637 | 0.989 | 0.814 | 0.854 | 1.12 | 1.02 | 1.07 | 0.9 | 0.852 | – | 0.37 | 0.329 | 0.348 | 0.324 |
| EMC-BAC-2 | 0.28 | 0.189 | 0.289 | 0.292 | 0.261 | 1.16 | 1.17 | 1.14 | 0.996 | 1.16 | 1.08 | 1.05 | 1.01 | 0.628 | 0.917 | 0.98 | 1.11 | 0.881 | 0.733 | 0.727 |
| EPLC-272H | 0.211 | 0.448 | 0.24 | 0.114 | 0.25 | 1.12 | 1.29 | 1.41 | – | 1.2 | 0.882 | 1.11 | 1.06 | – | 0.857 | 0.316 | 0.375 | 0.389 | – | 0.344 |
| H3255 | 0.599 | 0.767 | 0.717 | 0.601 | 0.614 | 0.615 | 0.504 | 0.499 | 0.433 | 0.395 | 0.803 | 0.796 | 0.812 | 0.541 | 0.627 | – | 0.627 | 0.559 | 0.518 | 0.686 |
